This note sets out measurements from ChEMBL document CHEMBL1144133, “Novel highly oxygenated bisabolane sesquiterpenes from Cremanthodium discoideum” (1999).

Holding throughout (format): functional
The test system of assay [1] is Bacillus. Kind of assay: Antibacterial activity against Bacillus acidilatici MCCB 44102 at 100 ug/ml after 24 hrs by paper-disk method.
The subject of assay [2] is Pseudomonas aeruginosa. In words: Antibacterial activity against Bacillus aeruginosus MCCB 10104 at 100 ug/ml after 24 hrs by paper-disk method.
In assay [3] the test system is Bacillus subtilis. Kind of assay: Antibacterial activity against Bacillus subtilis MCCB 26501 at 100 ug/ml after 24 hrs by paper-disk method.

For `O=C(N[C@H](CO)[C@H](O)c1ccc([N+](=O)[O-])cc1)C(Cl)Cl` [CHLORAMPHENICOL], the Activity in assay [1], in assay [2] and in assay [3] was 13 mm each time.
Turning to `C=C([C@@H](C[C@H](O)C(C)(C)OC)OC(=O)/C(C)=C\C)[C@@H]1C[C@@H](Cl)[C@](C)(O)[C@H](OC(C)=O)[C@@H]1OC(=O)/C(C)=C\C`, the Activity in assay [1] is given as 10 mm; in assay [2] it was less than 9 mm; in assay [3], 13 mm.
